The results in this text go back to ChEMBL document CHEMBL4184278, “Synthesis and cytotoxicity of novel imidazo[4,5-d]azepine compounds derived from marine natural product ceratamine A” (Bioorg Med Chem Lett, 2018).

What all share (assay type): functional, cell-based
One assay relates to A2780. The assay can be described thus: Cytotoxicity against human A2780 cells assessed as growth inhibition after 72 hrs by MTT assay. To be noted: A2780, 72 h. A general note: Tetrazolium dyes change colour on reduction, which living cells bring about.
In another assay the test system is HCT-116. The assay is described as follows: Cytotoxicity against human HCT116 cells assessed as growth inhibition after 72 hrs by MTT assay. To be noted: HCT-116, 72 h.
In a further assay the test system is HepG2. The assay is described as follows: Cytotoxicity against human HepG2 cells assessed as growth inhibition after 72 hrs by MTT assay. Conditions: HepG2, 72 h.
For another assay, the system named is A549. The assay is described as follows: Cytotoxicity against human A549 cells assessed as growth inhibition after 72 hrs by MTT assay. Conditions: A549, 72 h.
In a further assay the test system is BGC-823. The assay is described as follows: Cytotoxicity against human BGC823 cells assessed as growth inhibition after 72 hrs by MTT assay. To be noted: BGC-823, 72 h.

One may read the IC50 as the midpoint of a concentration-inhibition curve. `O=C1/C(=C\c2ccccc2)c2c(ncn2COCc2ccccc2)CCN1Cc1ccc(-c2ccccc2)cc1`: the IC50 with A2780 is 48.3 µM; with HCT-116 it was 14 µM; in the assay with HepG2, 72.5 µM; in the assay with A549, 18.3 µM; in the assay on BGC-823, 81 µM.
In the same order, the values of `Cc1ccccc1CN1CCc2ncn(COCc3ccccc3)c2/C(=C/c2ccccc2)C1=O` are 25.2 µM, 24.7 µM, 53.3 µM, 25.6 µM and 31.3 µM.
Taken in the same sequence, the figures for `O=C1/C(=C\c2ccccc2)c2c(ncn2COCc2ccccc2)CCN1Cc1ccc(F)cc1` were 24.8 µM, 11.2 µM, 39.4 µM, 19.6 µM and 72.9 µM.
As to `O=C1/C(=C\c2ccccc2)c2c(ncn2COCc2ccccc2)CCN1Cc1ccccc1`, the half-maximal inhibitory concentration (IC50) in the assay with A2780 worked out at 20.4 µM; in the assay on HCT-116, 20 µM; in the assay with HepG2 it was 13.9 µM; in the assay with A549 it was 9.9 µM; in the assay with BGC-823, 20.4 µM.
For `O=C1/C(=C\c2ccncc2)c2c(ncn2COCc2ccccc2)CCN1Cc1ccccc1`, the IC50 with A2780 was above 100 µM; in the assay on HCT-116, 67.1 µM; with HepG2 it was above 100 µM; in the assay with A549, 36 µM; with BGC-823, above 100 µM.
With `O=C1/C(=C\c2ccccc2)c2[nH]cnc2CCN1Cc1ccccc1`, the IC50 in the assay on A2780 was above 100 µM; with HCT-116, above 100 µM; with HepG2, above 100 µM; with A549, 51.1 µM; in the assay with BGC-823, above 100 µM.
On to `COc1ccc(CN2CCc3ncn(COCc4ccccc4)c3/C(=C/c3ccccc3)C2=O)cc1`, for which the IC50 was determined as 43.1 µM in the assay with A2780; 31.1 µM in the assay on HCT-116; 44.4 µM in the assay with HepG2; 46.8 µM in the assay with A549; 71.6 µM with BGC-823.
In the same order, the values of `Cc1cccc(CN2CCc3ncn(COCc4ccccc4)c3/C(=C/c3ccccc3)C2=O)c1` are 26.3 µM, 3.8 µM, 34.3 µM, 16.1 µM and 14.6 µM.
In the same order, the values of `CNc1nc2ccn(C)c(=O)c(Cc3cc(Br)c(OC)c(Br)c3)c-2n1` [CERATAMINE A] are 11.2 µM, 12.4 µM, 7.8 µM, 26.8 µM and 20 µM.
Taken in the same sequence, the figures for `CC(C)(C)c1ccc(CN2CCc3ncn(COCc4ccccc4)c3/C(=C/c3ccccc3)C2=O)cc1` were 23.9 µM, 8.46 µM, 18 µM, 20.6 µM and 27.8 µM.
Take `O=C1/C(=C\c2ccccc2)c2c(ncn2COCc2ccccc2)CCN1Cc1ccc2ccccc2c1`: the IC50 with A2780 is 72.8 µM; in the assay on HCT-116, 19.4 µM; in the assay on HepG2, 23.7 µM; in the assay with A549 it was 26.4 µM; in the assay on BGC-823, 93.3 µM.
Consider `O=C1/C(=C\c2ccc(C(F)(F)F)cc2)c2c(ncn2COCc2ccccc2)CCN1Cc1ccccc1`, for which the half-inhibitory concentration (IC50) stood at 28.2 µM in the assay on A2780; 36 µM in the assay with HCT-116; 51.4 µM in the assay with HepG2; 52.5 µM in the assay on A549; 42.6 µM in the assay with BGC-823.
Taken in the same sequence, the figures for `Cc1cc(C)cc(CN2CCc3ncn(COCc4ccccc4)c3/C(=C/c3ccccc3)C2=O)c1` were 31.3 µM, 6.23 µM, 40.9 µM, 22.5 µM and 52.6 µM.
Taken in the same sequence, the figures for `COc1cc(/C=C2\C(=O)N(Cc3ccccc3)CCc3ncn(COCc4ccccc4)c32)cc(OC)c1OC` were 8.97 µM, 8.9 µM, 10 µM, 8.56 µM and 12.9 µM.
Taken in the same sequence, the figures for `Cc1ccc(CN2CCc3ncn(COCc4ccccc4)c3/C(=C/c3ccccc3)C2=O)cc1` were 21.2 µM, 7.94 µM, 44.6 µM, 11.4 µM and 39.1 µM.
With `O=C1/C(=C\c2ccccc2)c2c(ncn2COCc2ccccc2)CCN1Cc1ccc(Cl)cc1`, the IC50 with A2780 amounted to 22.2 µM; in the assay on HCT-116, 10.5 µM; with HepG2, 47.9 µM; in the assay on A549 it was 11.8 µM; in the assay with BGC-823 it was 75.7 µM.
